# Test results from patent US20110028719A1, “SCREENING METHODS FOR AMYLOID BETA MODULATORS” (priority 2006, published 2011).
# Molecular target: immobilized Aβ fibrils (Homo sapiens, UniProt P05067)
# Test: FAC-MS assay of free Aβ monomer (indicator) binding to immobilized Aβ fibrils in the presence of test compounds
# Details: FAC-MS % shift of breakthrough time of free Aβ1-42 monomer (1 μM) on immobilized Aβ fibrils; compounds 1-10 μM in 20 mM NH4OAc, 1% DMSO; void marker M3
# immobilized Aβ fibrils, sequence (P05067 672-713 limits assumed): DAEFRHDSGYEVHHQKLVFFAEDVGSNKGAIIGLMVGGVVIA
row,Structure (SMILES),% of Shift
1,"O=P(O)(O)O[C@@H]1C(O)[C@@H](OP(=O)(O)O)[C@@H](O)C(O)[C@H]1O (stereo partly drawn) [Compound I-3139, D-Myo-inositol-2,4-bis-phosphate, reference compound]",12%
2,"OC1C(O)C(O)C(O)C(O)C1O (centres unmarked) [Chiro, chiro-inositol, reference compound]",2%
3,"CO[C@H]1[C@H](O)[C@@H](O)[C@@H](O)[C@H](O)[C@@H]1O [D-Pinitol, D-pinitol, reference compound]",3%
4,"C[C@H]1O[C@H](OC2[C@@H](O)[C@@H](O)C(O)[C@H](O)[C@H]2O)[C@@H](N)C[C@@H]1N=C(N)C(=O)O.Cl (some centres unmarked) [Compound K413, Kasugamycin hydrochloride, reference compound]",2%
5,"CC(=O)OC1C(OC(=O)C(C)(C)C)C(OC(=O)C(C)(C)C)C(OC(C)=O)C(OC(=O)C(C)(C)C)C1OC(=O)C(C)(C)C (centres unmarked) [Compound 37387004, 2,5-bis(acetoxy)-3,4,6-tris[(2,2-dimethylpropanoyl)oxy]cyclohexyl pivalate]",4%
6,"CCC(=O)OC1C(OC(=O)CC)C(OC(=O)CC)C(OC(=O)CC)C(OC(=O)CC)C1OC(=O)CC (centres unmarked) [Compound 37387006, 2,3,4,5,6-pentakis(propionyloxy)cyclohexyl propionate]",4%
7,"CC(C)C(=O)OC1C(O)C(OC(=O)C(C)C)C(OC(=O)C(C)C)C(OC(=O)C(C)C)C1OC(=O)C(C)C (centres unmarked) [Compound 37387001, 2-hydroxy-3,4,5,6-tetrakis(isobutyryloxy)cyclohexyl 2-methylpropanoate]",4%

# Same assay, conditions: FAC-MS screen; shift of free Aβ monomer breakthrough on immobilized Aβ fibrils in presence of compound; scale not given
row,Structure (SMILES),Aβ Shift
1,C=CC1CCC(O)C(O)C1 (centres unmarked),1
2,Cc1ccc[n+](CC(=O)OC2CC(C)CCC2C(C)C)c1 (centres unmarked),1
3,CC1CCC(N(CCCN)Cc2ccco2)CC1C (centres unmarked),1
4,BrC1CC2OC2CC1Br (centres unmarked),0
5,COc1ccc(C2(O)C(C)CCCC2C)cc1 (centres unmarked),0
6,O=C(O)C1C2CC3C(C2Cl)C31 (centres unmarked),1
7,CC1CCC(C(C)C)C(OCC[N+](C)(C)C)C1 (centres unmarked),2
8,CC1CCC(C(C)C)C(OC(=O)c2ccco2)C1 (centres unmarked),2
9,CC1CCCC(NC(=O)c2ccc3snnc3c2)C1C (centres unmarked),1
10,NC12C3C4C5C1C2C(Br)(C43)C51OCCO1 (centres unmarked),0
11,Cc1ccc(C(C)(C)CC(C)NC2CCCC(C)C2C)o1 (centres unmarked),1
12,Nc1ncnc2c1ncn2C1CCC(CO)C(O)C1 (centres unmarked),1
13,CC1CCC(C(C)C)C(OCC(O)CNC(C)C)C1 (centres unmarked),1
14,CC12CC3CC(C)(C1)CC(CN1CCOCC1)(C3)C2,1
15,CC(C)(C)C(=O)O[C@@H]1[C@@H](OC(=O)C(C)(C)C)[C@H](OC(=O)C(C)(C)C)[C@H](O)[C@H](OC(=O)C(C)(C)C)[C@H]1OC(=O)C(C)(C)C,5
16,Cc1nn(CC(=O)NC2CCCC(C)C2C)c2ccccc12 (centres unmarked),1
17,CC1CCCC(n2cnc3cc(C(=O)O)ccc32)C1C (centres unmarked),1

# The next lines start with the values.
row,Aβ Shift,Structure (SMILES)
1,0,CC12CC3CC(C)(C1)CC(O)(C3)C2
2,2,CC12CC3CC(C)(C1)CC(c1ccc(O)cc1)(C3)C2
3,0,CC1CC(NC(=O)C2CCC2)CC(C)(C)C1 (centres unmarked)
4,0,CC1(C)CC2(C)CC(O)(C1)C13CCC(C)(C)CC1(C2)O3 (centres unmarked)
5,0,CCCCCCCCC(=O)NC1CC(C)CC(C)(C)C1 (centres unmarked)
6,2,Cc1cccc(NC(=O)C23CC4CC(C)(CC(C)(C4)C2)C3)c1
7,0,CC1CC2=C(/C(=N/O)C1)C1(O)CC(C)CC(C)(C2)C1 (centres unmarked)
8,0,CC1CCC(C(C)C)C(OC(=O)C2C3CCCCC32)C1 (centres unmarked)
9,2,CC12CC3CC(C)(C1)CC(N)(C3)C2
10,1,CC(=O)NC12CC3CC(C)(C1)CC(NC(C)=O)(C3)C2
11,1,CC12CC3CC(C)(C1)CC(C(Cl)C(=O)O)(C3)C2 (centres unmarked)
12,1,CC1CC(NC(=O)c2nc[nH]n2)CC(C)(C)C1 (centres unmarked)
13,4,CC(=O)O[C@@H]1[C@@H](OC(=O)C(C)(C)C)[C@H](OC(=O)C(C)(C)C)[C@H](OC(C)=O)[C@H](OC(=O)C(C)(C)C)[C@H]1OC(=O)C(C)(C)C
14,1,CC1(C(=O)O)CC(C)(C(=O)O)CC(C)(C(=O)O)C1 (centres unmarked)
15,1,CC1CCN(C(=O)C23CC4CC(C)(CC(C)(C4)C2)C3)CC1
16,1,COC(=O)[C@@H]1C[C@H](O)C[C@H](C(=O)OC)C1
17,1,CN(C)C(=O)C12CC3(C)CC(C)(CC(C)(C3)C1)C2
18,1,CC(=O)c1[nH]c(C)c(C(=O)NC2CCCC(C)C2C)c1C (centres unmarked)
19,1,CC(C)NC(=O)C12CC3(C)CC(C)(CC(C)(C3)C1)C2
20,1,CC(=O)OCC12COC(C)(CC1C)CC2C (centres unmarked)
